According to patent US20260137697A1, “THIAZOLO[5,4-D]PYRIMIDINE COMPOUNDS, COMPOSITIONS COMPRISING THEM AND USES THEREOF” (University de Montreal, priority 2022, published 2026):

Tested on: pERK, RAS-mutant cancer cell lines
Test: Paradoxical pERK induction across the panel of RAS-mutant cancer cell lines
Assay type: cell-based, human
Details: in 10 of the 13 RAS-mutant cell lines tested; mild to strong induction of the pathway
Experimental: All cancer cell lines (A375, A101D, A2058, RKO, HT29 SK-MEL 30, IPC298, HepG2, HCT-116, Lovo, SW620, SW480, NCI-H358, NCI-H2122, Calu-6, NCIH2087, NCIH1755, NCIH1666 and Mewo) were obtained from ATCC and cultured in RPM1-1640 medium (Gibco) supplemented with 5% heat inactivated fetal bovine serum (FBS, Wisent) at 37° C. under 5% CO2. Cells were maintained in T175 flasks (Greiner). They were passaged by removing the culture medium, washing once in 10 mL of room temperature Phosphate Buffered Saline (PBS; Wisent) and incubating at 37° C. with 2 mL of 0.05% Trypsin (Thermo-Fisher). […]
After treatment, media was removed, and cells were lysed in 50 μL of 1× AlphaScreen Ultra Lysis Buffer (Perkin Elmer). […] After completion of the reactions, the signals were recorded on an EnVision plate reader (Perkin Elmer) using built in AlphaLISA® settings.
The effect of each compound dilution on the pERK signal was expressed in % inhibition and calculated as follows. […]
The ability of each compound to inhibit pERK signal was expressed as an IC50 value obtained by plotting the inhibition values for each data point of a dilution series and fitting the obtained curves using a log(agonist) versus response—variable slope (four parameters) function using GraphPadPrism (V7.0) or Dotmatics Screening Ultra platform. […]

Cc1ccc2c(Nc3cccc(Cl)c3F)nccc2c1NC(=O)c1csc2c(N)ncnc12 [Belvarafenib, reference compound]
YMIN of pERK IC50 curves: < −30%
